For experiment [1], the target named is T1, Orco (Apocrypta bakeri, UniProt B0FAQ4).
T1 construct: gene Or2; expressed in HEK293 cells with GCaMP6s; homotetramer
T1 sequence (B0FAQ4 1-474): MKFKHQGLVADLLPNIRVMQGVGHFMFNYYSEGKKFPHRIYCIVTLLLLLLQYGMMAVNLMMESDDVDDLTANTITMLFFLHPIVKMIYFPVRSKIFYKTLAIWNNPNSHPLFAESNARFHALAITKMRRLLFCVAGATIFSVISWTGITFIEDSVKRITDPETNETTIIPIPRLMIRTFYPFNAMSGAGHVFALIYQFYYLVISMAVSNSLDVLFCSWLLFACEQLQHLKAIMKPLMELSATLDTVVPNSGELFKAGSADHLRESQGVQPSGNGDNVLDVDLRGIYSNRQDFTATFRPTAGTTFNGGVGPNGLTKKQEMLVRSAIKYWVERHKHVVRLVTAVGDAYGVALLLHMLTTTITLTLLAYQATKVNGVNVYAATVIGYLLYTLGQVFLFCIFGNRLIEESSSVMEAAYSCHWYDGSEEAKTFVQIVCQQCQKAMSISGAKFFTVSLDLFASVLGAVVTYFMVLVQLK
Kind of experiment: cell-based. Further details: species or system HEK293; GCaMP6s calcium fluorescence (ΔF/F) dose-response in HEK cells expressing the odorant receptor. How it is done:
(§1) Seven ligand concentrations were used for each transfection condition in sequential dilutions of 3, alongside a control well of only reading buffer. Ligands were dissolved in DMSO to 150 mM, then diluted with reading buffer to a highest final-well concentration of 0.5 mM (DMSO never exceeded 0.5%). Water-soluble ligands (arabinose, caffeine, denatonium, glucose, MSG, sucrose) were dissolved directly into reading buffer. If experimental data indicated a more sensitive response than this range, the concentration was adjusted accordingly. Ligand concentrations for mutants were the same as for the corresponding wild-type OR. Each plate contained a negative control of GCaMP6s transfected alone and exposed to eugenol for MhOR5 and VUAA1 for Orco experiments. […] A control of DMSO alone was also tested to ensure no activity effects were due to the solvent. Each concentration of ligand was applied to four technical replicates, which were averaged and considered a single biological replicate. The baseline fluorescence (F) was calculated as the average fluorescence of the 30 s before odour was added to the plate. Within each well, ΔF was calculated as the difference between the average of the last 10 s of fluorescence and the baseline F. ΔF/F was then calculated as the ΔF divided by the baseline fluorescence (F). […]

Experiment [2] deals with T2, MhOR5 (Machilis hrabei, UniProt Z9G0B3H7M0).
T2 construct: Lys2-Pro474; cryo-EM: N-terminal Strep II-sfGFP cleaved with HRV 3C, HEK293S GnTI-; calcium assay: pME18s vector without fluorescent marker, HEK293 with GCaMP6s; homotetramer
T2 sequence (Z9G0B3H7M0 6-478): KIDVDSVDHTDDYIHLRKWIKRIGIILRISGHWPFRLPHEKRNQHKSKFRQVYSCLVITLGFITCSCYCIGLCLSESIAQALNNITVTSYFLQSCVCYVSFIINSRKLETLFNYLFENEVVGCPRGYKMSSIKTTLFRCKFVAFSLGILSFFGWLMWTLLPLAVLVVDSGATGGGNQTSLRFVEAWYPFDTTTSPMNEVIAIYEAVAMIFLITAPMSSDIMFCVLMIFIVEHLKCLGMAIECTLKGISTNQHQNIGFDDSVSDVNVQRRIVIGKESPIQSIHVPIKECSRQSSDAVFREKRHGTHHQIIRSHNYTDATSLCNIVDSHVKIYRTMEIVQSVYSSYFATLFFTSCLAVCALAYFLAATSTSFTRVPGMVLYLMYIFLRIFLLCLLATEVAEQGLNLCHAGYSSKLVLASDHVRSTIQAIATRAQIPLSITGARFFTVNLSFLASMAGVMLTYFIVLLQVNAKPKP
Kind of experiment: GCaMP6s calcium flux, HEK293. As to conditions: agonist, sub-maximal efficacy; 2 mM CaCl2, pH 7.4. The experiment is classed as cell-based. (Calcium assays in cells follow changes in intracellular calcium, usually with a dye or a luminescent sensor.)

The target in experiment [3] is T1, Orco. Kind of experiment: cell-based. Further details: species or system HEK293; GCaMP6s calcium fluorescence dose-response of olfactory receptor channel expressed in HEK293 cells. How it is done:
as §1

For orientation: EC50 means the midpoint of the concentration-response curve.

Where two headings read alike, the source gives them in different places.

Consider `CC(=O)c1ccccc1` [acetophenone], for which the concentration for a half-maximal effect (EC50) in experiment [1] is greater than 500 µM.

As to `CCN(CC)C(=O)c1cccc(C)c1` [DEET], in experiment [2], the EC50 result is given as “MhOR5 was also activated by the insect repellent DEET”.

Take `CCc1ccc(NC(=O)CSc2nnc(-c3cccnc3)n2CC)cc1` [VUAA1]: the EC50 in experiment [3] is 55.2 µM.

The values above are taken from article PMC8410599, “The structural basis of odorant recognition in insect olfactory receptors” (Nature, 2021).
